Patent US20120083522A1, “MODULATION OF INFLAMMATORY RESPONSES BY FACTOR XI” (Isis Pharmaceuitcals, inc., priority 2009, published 2012)
In the oligonucleotide strings, read from the 5' end, every base follows the letter of its sugar. An asterisk marks phosphorothioate; unmarked linkages are phosphodiester. Other units and linkages are bracketed, terminal groups are in braces. A string of capitals states the bases alone. e = 2'-O-(2-methoxyethyl) (MOE); [5mC] = 5-methylcytosine; d = 2'-deoxy (DNA)

Columns and labels:
[1] = Tolerability in Sprague-Dawley rats: kidney function (Example 19); type: in vivo; conditions: Sprague Dawley rats; for urine protein/creatinine ratio, After: after 50 mg/kg s.c. twice per week for 6 weeks; for urine protein/creatinine ratio, Before: before antisense oligonucleotide treatment
Excerpt: Urine samples were taken before the start of treatment.

[2] = test system: human Factor XI mRNA; assay: Dose-dependent inhibition in HepG2 cells, lipofectin (Example 5); type: cell-based; conditions: 16 hours
Experimental: Cells were plated at a density of 10,000 cells per well and transfected using lipofectin reagent with 2.34 nM, 4.69 nM, 9.375 nM, 18.75 nM, 37.5 nM, and 75 nM concentrations of antisense oligonucleotide, as specified in Table 11. After a treatment period of approximately 16 hours, RNA was isolated from the cells and human Factor XI mRNA levels were measured by quantitative real-time PCR. Human Factor XI primer probe set RTS 2966 was used to measure mRNA levels. Factor XI mRNA levels were adjusted according to total RNA content, as measured by RIBOGREEN®. Results are presented as percent inhibition of human Factor XI, relative to untreated control cells.

[3] = test system: human Factor XI mRNA; assay: Antisense inhibition in HepG2 cells by microwalk gapmers, 8,000 nM, electroporation (Example 14); type: cell-based; conditions: HepG2 cells, 8,000 nM
Procedure, shortened: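 Percent reduction of Factor XI transcript, relative to untreated controls, by real-time PCR with RIBOGREEN normalisation. Readout taken about 24 h after electroporating HepG2 cells with 8,000 nM oligonucleotide. Gapmers are 5-10-5, 5-8-5 or 6-8-6 MOE wings, phosphorothioate backbone.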

[4] = test system: human Factor XI mRNA; assay: Antisense inhibition in HepG2 cells by microwalk gapmers, 75 nM, lipofectin (Example 3); type: cell-based; conditions: HepG2 cells, 75 nM
Procedure, shortened: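 HepG2 cells (10,000 per well) were transfected with 75 nM gapmer using lipofectin and treated for about 24 h. Factor XI mRNA was quantified by real-time PCR, normalized to RiboGreen total RNA and expressed as percent inhibition versus untreated controls.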

[5] = oligonucleotides targeted to nucleobases 1275 to 1318 of SEQ ID NO: 1

For “416825 (antisense GCCCTTCATGTCTAGGTCCA; 5-10-5 gapmer, wing sugar chemistry not given here, further chemistry not given here) [compound 416825]”, the “urine protein/creatinine ratio, After” value [1] was 5.4, the “urine protein/creatinine ratio, Before” value [1] was 1.1 and the “percent inhibition of human Factor XI mRNA, relative to untreated control cells” value ([2]; 2.34 nM) was 4%. For the same substance, the “percent inhibition of human Factor XI mRNA, relative to untreated control cells” value ([2]; 4.69 nM) was 22%, the “percent inhibition of human Factor XI mRNA, relative to untreated control cells” value ([2]; 9.375 nM) was 39% and the “percent inhibition of human Factor XI mRNA, relative to untreated control cells” value ([2]; 18.75 nM) was 57%. For the same substance, the “percent inhibition of human Factor XI mRNA, relative to untreated control cells” value ([2]; 37.5 nM) was 79%, the “percent inhibition of human Factor XI mRNA, relative to untreated control cells” value ([2]; 75 nM) was 89% and the “Percent inhibition of human Factor XI mRNA levels” value [3] was 90%.

In the case of “416838 (antisense GCAACCGGGATGATGAGTGC; 5-10-5 gapmer, wing sugar chemistry not given here, further chemistry not given here) [compound 416838]”, the “urine protein/creatinine ratio, After” value [1] was 3.7, the “urine protein/creatinine ratio, Before” value [1] was 1.2 and the “percent inhibition of human Factor XI mRNA, relative to untreated control cells” value ([2]; 2.34 nM) was 21%. For the same substance, the “percent inhibition of human Factor XI mRNA, relative to untreated control cells” value ([2]; 4.69 nM) was 37%, the “percent inhibition of human Factor XI mRNA, relative to untreated control cells” value ([2]; 9.375 nM) was 50% and the “percent inhibition of human Factor XI mRNA, relative to untreated control cells” value ([2]; 18.75 nM) was 63%. The “percent inhibition of human Factor XI mRNA, relative to untreated control cells” value ([2]; 37.5 nM) was 74%, the “percent inhibition of human Factor XI mRNA, relative to untreated control cells” value ([2]; 75 nM) was 83% and the “% inhibition of human Factor XI mRNA levels” value (from here on “% inhibition”) ([4]; oligonucleotides targeted to nucleobases 1018 to 1042 of SEQ ID NO: 1) was 94%.

For “416850 (antisense TGCACAGTTTCTGGCAGGCC; 5-10-5 gapmer, wing sugar chemistry not given here, further chemistry not given here) [compound 416850]”, the “urine protein/creatinine ratio, After” value [1] was 4.0, the “urine protein/creatinine ratio, Before” value [1] was 1.0 and the “percent inhibition of human Factor XI mRNA, relative to untreated control cells” value ([2]; 2.34 nM) was 24%. For the same substance, the “percent inhibition of human Factor XI mRNA, relative to untreated control cells” value ([2]; 4.69 nM) was 31%, the “percent inhibition of human Factor XI mRNA, relative to untreated control cells” value ([2]; 9.375 nM) was 49% and the “percent inhibition of human Factor XI mRNA, relative to untreated control cells” value ([2]; 18.75 nM) was 55%. For the same substance, the “percent inhibition of human Factor XI mRNA, relative to untreated control cells” value ([2]; 37.5 nM) was 70%, the “percent inhibition of human Factor XI mRNA, relative to untreated control cells” value ([2]; 75 nM) was 77% and the “% inhibition” value [4, 5] was 93%. The “Percent inhibition of human Factor XI mRNA levels” value [3] was 91%.

In the case of “416858 (antisense ACGGCATTGGTGCACAGTTT; 5-10-5 gapmer, wing sugar chemistry not given here, further chemistry not given here) [compound 416858]”, the “urine protein/creatinine ratio, After” value [1] was 4.4, the “urine protein/creatinine ratio, Before” value [1] was 0.9 and the “percent inhibition of human Factor XI mRNA, relative to untreated control cells” value ([2]; 2.34 nM) was 11%. For the same substance, the “percent inhibition of human Factor XI mRNA, relative to untreated control cells” value ([2]; 4.69 nM) was 35%, the “percent inhibition of human Factor XI mRNA, relative to untreated control cells” value ([2]; 9.375 nM) was 46% and the “percent inhibition of human Factor XI mRNA, relative to untreated control cells” value ([2]; 18.75 nM) was 61%. For the same substance, the “percent inhibition of human Factor XI mRNA, relative to untreated control cells” value ([2]; 37.5 nM) was 75%, the “percent inhibition of human Factor XI mRNA, relative to untreated control cells” value ([2]; 75 nM) was 77% and the “% inhibition” value [4, 5] was 93%. For the same substance, the “Percent inhibition of human Factor XI mRNA levels” value [3] was 90%.

For “416864 (antisense GGCAGCGGACGGCATTGGTG; 5-10-5 gapmer, wing sugar chemistry not given here, further chemistry not given here) [compound 416864]”, the “urine protein/creatinine ratio, After” value [1] was 4.0, the “urine protein/creatinine ratio, Before” value [1] was 1.2 and the “percent inhibition of human Factor XI mRNA, relative to untreated control cells” value ([2]; 2.34 nM) was 13%. The “percent inhibition of human Factor XI mRNA, relative to untreated control cells” value ([2]; 4.69 nM) was 34%, the “percent inhibition of human Factor XI mRNA, relative to untreated control cells” value ([2]; 9.375 nM) was 42% and the “percent inhibition of human Factor XI mRNA, relative to untreated control cells” value ([2]; 18.75 nM) was 65%. The “percent inhibition of human Factor XI mRNA, relative to untreated control cells” value ([2]; 37.5 nM) was 68%, the “percent inhibition of human Factor XI mRNA, relative to untreated control cells” value ([2]; 75 nM) was 80% and the “% inhibition” value [4, 5] was 93%. For the same substance, the “Percent inhibition of human Factor XI mRNA levels” value [3] was 88%.

For “416925 (antisense GGTGCACAGTTTCTGGCAGG; 3-14-3 chimeric gapmer, wing sugar chemistry not given here, further chemistry not given here) [compound 416925]”, the “urine protein/creatinine ratio, After” value [1] was 4.3, the “urine protein/creatinine ratio, Before” value [1] was 1.0 and the “percent inhibition of human Factor XI mRNA, relative to untreated control cells” value ([2]; 2.34 nM) was 24%. The “percent inhibition of human Factor XI mRNA, relative to untreated control cells” value ([2]; 4.69 nM) was 34%, the “percent inhibition of human Factor XI mRNA, relative to untreated control cells” value ([2]; 9.375 nM) was 45% and the “percent inhibition of human Factor XI mRNA, relative to untreated control cells” value ([2]; 18.75 nM) was 56%. The “percent inhibition of human Factor XI mRNA, relative to untreated control cells” value ([2]; 37.5 nM) was 67%, the “percent inhibition of human Factor XI mRNA, relative to untreated control cells” value ([2]; 75 nM) was 72% and the “% inhibition” value [4, 5] was 98%.

With “416999 (antisense GCACAGTTTCTGGCAGGCCT; 2-13-5 gapmer, wing sugar chemistry not given here, further chemistry not given here) [compound 416999]” the “urine protein/creatinine ratio, After” value [1] was 9.1, the “urine protein/creatinine ratio, Before” value [1] was 1.3 and the “percent inhibition of human Factor XI mRNA, relative to untreated control cells” value ([2]; 2.34 nM) was 10%. The “percent inhibition of human Factor XI mRNA, relative to untreated control cells” value ([2]; 4.69 nM) was 26%, the “percent inhibition of human Factor XI mRNA, relative to untreated control cells” value ([2]; 9.375 nM) was 42% and the “percent inhibition of human Factor XI mRNA, relative to untreated control cells” value ([2]; 18.75 nM) was 62%. For the same substance, the “percent inhibition of human Factor XI mRNA, relative to untreated control cells” value ([2]; 37.5 nM) was 72%, the “percent inhibition of human Factor XI mRNA, relative to untreated control cells” value ([2]; 75 nM) was 80% and the “% inhibition” value [4, 5] was 92%.

For “417002 (antisense GGTGCACAGTTTCTGGCAGG; 2-13-5 gapmer, wing sugar chemistry not given here, further chemistry not given here) [compound 417002]”, the “urine protein/creatinine ratio, After” value [1] was 2.4, the “urine protein/creatinine ratio, Before” value [1] was 1.0 and the “percent inhibition of human Factor XI mRNA, relative to untreated control cells” value ([2]; 2.34 nM) was 17%. The “percent inhibition of human Factor XI mRNA, relative to untreated control cells” value ([2]; 4.69 nM) was 26%, the “percent inhibition of human Factor XI mRNA, relative to untreated control cells” value ([2]; 9.375 nM) was 49% and the “percent inhibition of human Factor XI mRNA, relative to untreated control cells” value ([2]; 18.75 nM) was 61%. For the same substance, the “percent inhibition of human Factor XI mRNA, relative to untreated control cells” value ([2]; 37.5 nM) was 81%, the “percent inhibition of human Factor XI mRNA, relative to untreated control cells” value ([2]; 75 nM) was 84% and the “% inhibition” value [4, 5] was 92%.

In the case of “417003 (antisense TGGTGCACAGTTTCTGGCAG; 2-13-5 gapmer, wing sugar chemistry not given here, further chemistry not given here) [compound 417003]”, the “urine protein/creatinine ratio, After” value [1] was 4.8, the “urine protein/creatinine ratio, Before” value [1] was 0.9 and the “percent inhibition of human Factor XI mRNA, relative to untreated control cells” value ([2]; 2.34 nM) was 6%. For the same substance, the “percent inhibition of human Factor XI mRNA, relative to untreated control cells” value ([2]; 4.69 nM) was 29%, the “percent inhibition of human Factor XI mRNA, relative to untreated control cells” value ([2]; 9.375 nM) was 48% and the “percent inhibition of human Factor XI mRNA, relative to untreated control cells” value ([2]; 18.75 nM) was 64%. For the same substance, the “percent inhibition of human Factor XI mRNA, relative to untreated control cells” value ([2]; 37.5 nM) was 73%, the “percent inhibition of human Factor XI mRNA, relative to untreated control cells” value ([2]; 75 nM) was 82% and the “% inhibition” value [4, 5] was 89%.

For “445522 (antisense eG*e[5mC]*eA*e[5mC]*eA*dG*dT*dT*dT*d[5mC]*dT*dG*dG*e[5mC]*eA*eG*eG*e[5mC]) [compound 445522]”, the “Percent inhibition of human Factor XI mRNA levels” value [3] was 91%.

For “445531 (antisense eG*eG*e[5mC]*eA*eT*dT*dG*dG*dT*dG*d[5mC]*dA*d[5mC]*eA*eG*eT*eT*eT) [compound 445531]”, the “Percent inhibition of human Factor XI mRNA levels” value [3] was 90%.
